Assay results published in US9149462B2, “Pyrazole compounds acting against allergic, inflammatory and immune disorders” (Glaxo Group Limited, priority 2010, dated 2015).

What was measured:
Format in all cases: in vitro ADME
[1] = In vitro microsomal clearance, human
[2] = In vitro microsomal clearance, rat (CD)
[3] = In vitro microsomal clearance, dog (Beagle)
[4] = In vitro microsomal clearance, rat (Wistar Han)

Clint [1] [mL/min g liver] | Clint [2] [mL/min g liver] | Clint [3] [mL/min g liver] | Clint [4] [mL/min g liver] | SMILES
0.80 | 1.67 | 0.98 | 2.05 | O=C(Nc1cnn(Cc2c(F)cccc2C(F)(F)F)c1)c1c(F)cccc1F [Example 6, 2,6-Difluoro-N-(1-{[2-fluoro-6-(trifluoromethyl)phenyl]methyl}-1H-pyrazol-4-yl)benzamide]
<0.5 | 0.95 | 0.80 | 1.16 | [2H]C([2H])(c1c(F)cccc1C(F)(F)F)n1cc(NC(=O)c2c(F)cccc2F)cn1 [Example 29, 2,6-Difluoro-N-(1-(2-fluoro-6-(trifluoromethyl)-d2-benzyl)-1H-pyrazol-4-yl)benzamide]
